Values quoted from earlier work as cited in US20120093932A1, “TARGETED SUSTAINED-RELEASE MICROSPHERE OF VASCULAR OCCLUSIVE AGENT CONTAINING SODIUM ALGINATE AND SORAFENIB, PRODUCTION METHOD AND USE THEREOF” (Beijing Shengyiyao Science & Technology Development Co., …, priority 2009, published 2012).

How the values were obtained:
[1] = not given; remark: listed apart in the source
[2] = 400 mg orally twice a day; Phase I
[3] = oral single dose, solution containing 100 mg sorafenib
[4] = oral administration

## [O-][n+]1ccccc1 [pyridine N-Oxide]
other
  role in vitro compared to sorafenib: plays a similar role to sorafenib

## CNC(=O)c1cc(Oc2ccc(NC(=O)Nc3ccc(Cl)c(C(F)(F)F)c3)cc2)ccn1.Cc1ccc(S(=O)(=O)O)cc1 [sorafenib tosylate]
[1]; alcohol
  solubility in alcohol: slightly soluble
[1]; aqueous solution, becomes higher a little bit under strongly acid condition
  solubility in aqueous solution: low
[1]; polyethylene glycerol 400
  solubility in polyethylene glycerol 400: can be dissolved

## CNC(=O)c1cc(Oc2ccc(NC(=O)Nc3ccc(Cl)c(C(F)(F)F)c3)cc2)ccn1 [sorafenib, 4-{4-[3-(4-chloro-3-trifluoro-phenyl)-ureido]-phenoxyl}-pyridine-2-carboxylic methylamine]
[2]
  tolerability and effectiveness: tolerated and effective
[3]
  excreted as glucuronic acid metabolic products in urine: 19%
[3]; within 14 days
  excreted unchanged (faeces): 15%
  sorafenib excreted in the faeces: 77%
[4]
  side effects: diarrhea: 58%
  side effects: gastrointestinal response: 95%
  side effects: indigestion accompanied by appetite loss: 47%
  side effects: nausea: 30%
  side effects: vomiting: 24%
